14 compounds from ChEMBL document CHEMBL3046452, “Synthesis and pharmacological evaluation of some novel 2-pyrazolines bearing benzenesulfonamide as anti-inflammatory and blood glucose lowering agents” (Med Chem Res, 2013) can be followed below.

In series [1] the test system is Rattus norvegicus. The series is described as follows: Anti-inflammatory activity in Rattus norvegicus Wistar albino (rat) assessed as inhibition of carrageenan-induced paw edema at 0.05 mmol/kg administered 30 min prior to carrageenan-challenge measured after 5 hr relative to control. In kind it is functional. On the technique in general: The carrageenan paw model is a standard test of acute inflammation.

Series [2] has as its system Rattus norvegicus. The series is described as follows: Antidiabetic activity in fasted glucose fed hyperglycemic normal Rattus norvegicus Wistar albino (rat) assessed as blood glucose level at 0.05 mmol/kg administered 30 min prior to glucose-challenge measured after 60 min (reference value: 126.5 +/- 3.8 mg/dl). In kind it is functional.
In series [3] the test system is Rattus norvegicus. The series is described as follows: Anti-inflammatory activity in Rattus norvegicus Wistar albino (rat) assessed as inhibition of carrageenan-induced paw edema at 0.05 mmol/kg administered 30 min prior to carrageenan-challenge measured after 3 hr relative to control. In kind it is functional.
In series [4] the test system is Rattus norvegicus. The series can be described thus: Ulcerogenic activity in fasted Rattus norvegicus Wistar albino (rat) at 0.15 mmol/kg , po measured after 6 hr. In kind it is toxicity, organism-based. To be noted: in vivo.

For orientation: inhibition in vivo means the percentage by which the read-out fell short of the control.

On to `COc1ccc([C@@H]2CC(c3cccc(O)c3)=NN2c2ccc(S(N)(=O)=O)cc2)cc1OC`, for which the inhibition in vivo at 50 µmol/kg in series [1] is 66.7%; in series [3], 55.9%. Further, in series [2], the Activity amounted to 111 mg/dL.

Consider `NS(=O)(=O)c1ccc(N2N=C(c3cccc(O)c3)C[C@H]2c2ccco2)cc1`, for which the figures for the inhibition in vivo at 50 µmol/kg in series [1] and in series [3] were 29.6% and 35.8%, respectively. Also, in series [2], the Activity worked out at 133 mg/dL.

Take `Cc1ccc([C@@H]2CC(c3cccc(O)c3)=NN2c2ccc(S(N)(=O)=O)cc2)cc1`: the inhibition in vivo at 50 µmol/kg in series [1] was 66%; in series [3], 64.7%. The Activity in series [2] amounted to 138.6 mg/dL.

With `NS(=O)(=O)c1ccc(N2N=C(c3cccc(O)c3)C[C@H]2c2ccccc2)cc1`, the inhibition in vivo at 50 µmol/kg in series [1] turned out to be 77.7%; in series [3], 35.8%. Also, the figures for the Activity in series [2] and in series [4] were 126.3 mg/dL and “Non-toxic”, respectively.

Consider `COc1cc([C@@H]2CC(c3cccc(O)c3)=NN2c2ccc(S(N)(=O)=O)cc2)cc(OC)c1OC`, for which the inhibition in vivo at 50 µmol/kg in series [1] came out at 74.4%; in series [3], 51.9%. Also, the Activity in series [2] was 94.6 mg/dL.

With `NS(=O)(=O)c1ccc(N2N=C(c3cccc(O)c3)C[C@H]2c2ccc(Cl)cc2)cc1`, the inhibition in vivo at 50 µmol/kg in series [1] amounted to 51.8%; in series [3], 19.2%. For the same compound, in series [2], the Activity is 134 mg/dL.

In the case of `NS(=O)(=O)c1ccc(N2N=C(c3cccc(O)c3)C[C@H]2c2ccccc2O)cc1`, the inhibition in vivo at 50 µmol/kg came to 55.5% in series [1] and 35.4% in series [3]. Also, the Activity in series [2] is 133 mg/dL.

`NS(=O)(=O)c1ccc(N2N=C(c3cccc(O)c3)C[C@H]2c2ccccc2Cl)cc1`: the inhibition in vivo at 50 µmol/kg in series [1] was 70.3%; in series [3], 32.6%. Moreover, the Activity in series [2] is 121 mg/dL.

In the case of `Cc1ccc(-c2cc(C(F)(F)F)nn2-c2ccc(S(N)(=O)=O)cc2)cc1` [CELECOXIB], the results for the inhibition in vivo at 50 µmol/kg in series [1] and in series [3] were 82.2% and 75.9%, respectively.

For the compound `Cc1ccc(S(=O)(=O)NC(=O)NN2CC3CCCC3C2)cc1` (configuration not stated) [GLICLAZIDE], the Activity in series [2] amounted to 85.83 mg/dL.

`NS(=O)(=O)c1ccc(N2N=C(c3cccc(O)c3)C[C@H]2c2ccc(O)cc2)cc1`: the inhibition in vivo at 50 µmol/kg in series [1] is 77.7%; in series [3] it was 64.7%. Also, the Activity in series [2] was 121 mg/dL; in series [4], “Non-toxic”.

As for `NS(=O)(=O)c1ccc(N2N=C(c3cccc(O)c3)C[C@H]2c2c3ccccc3cc3ccccc23)cc1`, the results for the inhibition in vivo at 50 µmol/kg in series [1] and in series [3] were 77.7% and 59.8%, respectively. Further, the results for the Activity in series [2] and in series [4] were 136.6 mg/dL and “Non-toxic”, respectively.

Regarding `NS(=O)(=O)c1ccc(N2N=C(c3cccc(O)c3)C[C@H]2/C=C/c2ccccc2)cc1`, the results for the inhibition in vivo at 50 µmol/kg in series [1] and in series [3] were 59.2% and 39.9%, respectively. In series [2], the Activity was 131 mg/dL.

Take `COc1ccc([C@@H]2CC(c3cccc(O)c3)=NN2c2ccc(S(N)(=O)=O)cc2)cc1`: the inhibition in vivo at 50 µmol/kg worked out at 62.9% in series [1] and 64.7% in series [3]. Further, in series [2], the Activity is 116.5 mg/dL.
